Consider 5 compounds from patent US20260125382A1, “COMPOUNDS FOR INHIBITING OR DEGRADING CDK2 AND/OR CDK9 AND MEDICINAL USE THEREOF” (KOREA RESEARCH INSTITUTE OF CHEMICAL TECHNOLOGY, priority 2022, published 2026).

The target in one experiment is T1, CDK2 (Homo sapiens, UniProt P24941).
T1 construct: endogenous in cells; host or cells: MDA-MB-231
As to the kind of experiment: CDK protein degradation activity (Western blotting), CDK2. It counts as cell-based. Particulars: MDA-MB-231 cells, 16 hours, Western blot. The method, boiled down:
(§1)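 CDK2 and CDK9 protein levels measured by Western blot with densitometry, using tubulin as loading reference. Cells were MDA-MB-231, exposed for 16 h to 100 nM, 1 μM or 10 μM compound or to DMSO.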
For orientation: In western blotting, separated proteins are transferred to a membrane and probed.

In the next experiment the target is T2, CDK9 (Homo sapiens, UniProt P50750).
T2 construct: endogenous in cells; host or cells: MDA-MB-231
T2 sequence (P50750 whole entry): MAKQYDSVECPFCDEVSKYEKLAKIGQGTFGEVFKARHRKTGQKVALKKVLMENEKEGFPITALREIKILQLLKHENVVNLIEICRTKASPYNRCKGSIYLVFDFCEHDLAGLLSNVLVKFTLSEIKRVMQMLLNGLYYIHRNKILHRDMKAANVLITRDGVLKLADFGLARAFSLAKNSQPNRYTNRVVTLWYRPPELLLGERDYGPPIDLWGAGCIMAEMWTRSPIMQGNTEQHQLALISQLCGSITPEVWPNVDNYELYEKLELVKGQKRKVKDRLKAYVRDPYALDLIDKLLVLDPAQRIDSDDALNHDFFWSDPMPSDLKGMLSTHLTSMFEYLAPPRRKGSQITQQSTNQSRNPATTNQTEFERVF
As to the kind of experiment: CDK protein degradation activity (Western blotting), CDK9. In kind it is cell-based. The settings on record: MDA-MB-231 cells, 16 hours, Western blot. The method, boiled down: as §1

`O=C1CC[C@H](N2C(=O)c3cc(F)c(N4CCC5(CC4)CC(N4CCN(c6ccc(Nc7ncnc8c7ncn8[C@H]7C[C@@H](NC(=O)Cc8ccccc8)C7)cc6)CC4)C5)cc3C2=O)C(=O)N1` [Compound 244, N-((1s,3s)-3-(6-((4-(4-(7-(2-(2,6-dioxopiperidin-3-yl)-6-fluoro-1,3-dioxoisoindolin-5-yl)-7-azaspiro[3.5]nonan-2-yl)piperazin-1-yl)phenyl)amino)-9H-purin-9-yl)cyclobutyl)-2-phenylacetamide]: at CDK2, the “Enzyme degradation CDK2 (% remaining) @ 0.1 μM” value was determined as 70%, the “Enzyme degradation CDK2 (% remaining) @ 1 μM” value was determined as 50% and the “Enzyme degradation CDK2 (% remaining) @ 10 μM” value worked out at 40%. Also, on CDK9, the “Enzyme degradation CDK9 (% remaining) @ 0.1 μM” value came to 60%, the “Enzyme degradation CDK9 (% remaining) @ 1 μM” value was 0% and the “Enzyme degradation CDK9 (% remaining) @ 10 μM” value is given as 0%.

Consider `O=C1CC[C@H](N2C(=O)c3cccc(OCC(=O)N4CCC(OCCN5CCN(c6ccc(Nc7ncnc8c7ncn8C7CC(NC(=O)Cc8ccccc8)C7)cc6)CC5)CC4)c3C2=O)C(=O)N1` (stereo partly drawn) [Compound 246, N-((1s,3s)-3-(6-((4-(4-(2-((1-(2-((2-(2,6-dioxopiperidin-3-yl)-1,3-dioxoisoindolin-4-yl)oxy)acetyl)piperidin-4-yl)oxy)ethyl)piperazin-1-yl)phenyl)amino)-9H-purin-9-yl)cyclobutyl)-2-phenylacetamide], for which, on CDK2, the “Enzyme degradation CDK2 (% remaining) @ 0.1 μM” value is recorded as 60%, the “Enzyme degradation CDK2 (% remaining) @ 1 μM” value was found to be 40% and the “Enzyme degradation CDK2 (% remaining) @ 10 μM” value is given as 40%. Also, at CDK9, the “Enzyme degradation CDK9 (% remaining) @ 0.1 μM” value came to 80%, the “Enzyme degradation CDK9 (% remaining) @ 1 μM” value stood at 30% and the “Enzyme degradation CDK9 (% remaining) @ 10 μM” value is reported as 0%.

Take `O=C1CC[C@H](N2C(=O)c3ccc(NCC(=O)N4CCC(OCCN5CCN(c6ccc(Nc7ncnc8c7ncn8[C@H]7C[C@@H](NC(=O)Cc8ccccc8)C7)cc6)CC5)CC4)cc3C2=O)C(=O)N1` [Compound 248, N-((1s,3s)-3-(6-((4-(4-(2-((1-((2-(2,6-dioxopiperidin-3-yl)-1,3-dioxoisoindolin-5-yl)glycyl)piperidin-4-yl)oxy)ethyl)piperazin-1-yl)phenyl)amino)-9H-purin-9-yl)cyclobutyl)-2-phenylacetamide]: on CDK2, the “Enzyme degradation CDK2 (% remaining) @ 0.1 μM” value is listed as 50/50/50%, the “Enzyme degradation CDK2 (% remaining) @ 1 μM” value is on record as 50/50/50% and the “Enzyme degradation CDK2 (% remaining) @ 10 μM” value is 50/50/50%. Moreover, on CDK9, the “Enzyme degradation CDK9 (% remaining) @ 0.1 μM” value was determined as 50%, the “Enzyme degradation CDK9 (% remaining) @ 1 μM” value came to 20% and the “Enzyme degradation CDK9 (% remaining) @ 10 μM” value was 0%.

For `O=C1CC[C@@H](c2ccc(OCC(=O)N3CCC(OCCN4CCN(c5ccc(Nc6ncnc7c6ncn7C6CC(NC(=O)Cc7ccccc7)C6)cc5)CC4)CC3)cc2)C(=O)N1` (stereo partly drawn) [Compound 250, N-((1s,3s)-3-(6-((4-(4-(2-((1-(2-(4-(2,6-dioxopiperidin-3-yl)phenoxy)acetyl)piperidin-4-yl)oxy)ethyl)piperazin-1-yl)phenyl)amino)-9H-purin-9-yl)cyclobutyl)-2-phenylacetamide], at CDK2, the “Enzyme degradation CDK2 (% remaining) @ 0.1 μM” value is on record as 60%, the “Enzyme degradation CDK2 (% remaining) @ 1 μM” value is given as 40% and the “Enzyme degradation CDK2 (% remaining) @ 10 μM” value amounted to 30%. In addition, at CDK9, the “Enzyme degradation CDK9 (% remaining) @ 0.1 μM” value turned out to be 40%, the “Enzyme degradation CDK9 (% remaining) @ 1 μM” value is on record as 10% and the “Enzyme degradation CDK9 (% remaining) @ 10 μM” value is reported as 0%.

Take `O=C1CC[C@@H](c2cccc(OCC(=O)N3CCC(OCCN4CCN(c5ccc(Nc6ncnc7c6ncn7C6CC(NC(=O)Cc7ccccc7)C6)cc5)CC4)CC3)c2)C(=O)N1` (stereo partly drawn) [Compound 251, N-((1s,3s)-3-(6-((4-(4-(2-((1-(2-(3-(2,6-dioxopiperidin-3-yl)phenoxy)acetyl)piperidin-4-yl)oxy)ethyl)piperazin-1-yl)phenyl)amino)-9H-purin-9-yl)cyclobutyl)-2-phenylacetamide]: at CDK2, the “Enzyme degradation CDK2 (% remaining) @ 0.1 μM” value is given as 0/0/0%, the “Enzyme degradation CDK2 (% remaining) @ 1 μM” value was 0/0/0% and the “Enzyme degradation CDK2 (% remaining) @ 10 μM” value is reported as 0/0/0%. At CDK9, the “Enzyme degradation CDK9 (% remaining) @ 0.1 μM” value is 30%, the “Enzyme degradation CDK9 (% remaining) @ 1 μM” value is reported as 0% and the “Enzyme degradation CDK9 (% remaining) @ 10 μM” value came to 0%.
